pIC50: −log10 of the molar value. Counter-ions that a name gives are not always drawn. Like-named read-outs stand apart in the source and are kept apart here.
Tests used:
Assay type in all cases: biochemical
human JAK1 [1] = molecular target: human JAK1 (Homo sapiens, UniProt P23458); test: In vitro JAK kinase assay (HTRF), JAK1; conditions: 1 mM ATP; for IC50: JAK1 IC50 (nM); for pIC50: read-out: JAK1 IC50
Summary of the method: (§1)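 Baculovirus-expressed catalytic domains (JAK1 a.a. 837-1142, JAK2 a.a. 828-1132) phosphorylate 500 nM biotinylated peptide at 1 mM ATP, Tris pH 7.8, 1 h at room temperature. EDTA stop and HTRF detection with Eu-Py20/SA-APC; IC50 values derived.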

human JAK2 = human JAK2 (Homo sapiens (Human), UniProt O60674); test: In vitro JAK kinase assay (HTRF), JAK2; conditions: 1 mM ATP
Chain of human JAK2 (O60674 828-1132): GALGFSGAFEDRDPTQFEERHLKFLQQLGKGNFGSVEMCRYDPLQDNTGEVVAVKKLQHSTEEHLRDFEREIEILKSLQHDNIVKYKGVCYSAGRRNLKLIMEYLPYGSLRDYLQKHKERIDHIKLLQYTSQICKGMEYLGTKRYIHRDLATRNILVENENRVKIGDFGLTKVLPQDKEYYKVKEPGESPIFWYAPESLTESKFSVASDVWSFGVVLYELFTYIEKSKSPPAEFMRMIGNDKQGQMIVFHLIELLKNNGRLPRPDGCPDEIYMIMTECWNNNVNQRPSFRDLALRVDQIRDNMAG
Method: Compounds herein were tested for inhibitory activity of JAK targets according to the following in vitro assay described in Park et al., Analytical Biochemistry 1999, 269, 94-104. The catalytic domains of human JAK1 (a.a. 837-1142), JAK2 (a.a. 828-1132) and JAK3 (a.a. 781-1124) were expressed using baculovirus in insect cells and purified. The catalytic activity of JAK1, JAK2 or JAK3 was assayed by measuring the phosphorylation of a biotinylated peptide. The phosphorylated peptide was detected by homogenous time resolved fluorescence (HTRF). IC50s of compounds were measured for each kinase in the 40 μL reactions that contain the enzyme, ATP and 500 nM peptide in 50 mM Tris (pH 7.8) buffer with 100 mM NaCl, 5 mM DTT, and 0.1 mg/mL (0.01%) BSA. For the 1 mM IC50 measurements, ATP concentration in the reactions was 1 mM. Reactions were carried out at room temperature for 1 hour and then stopped with 20 μL 45 mM EDTA, 300 nM SA-APC, 6 nM Eu-Py20 in assay buffer (Perkin Elmer, Boston, Mass.). Binding to the Europium labeled antibody took place for 40 minutes and HTRF signal was measured on a PHERA star plate reader (BMG, Cary, N.C.). The Example compounds were each tested in the Example A assay (see Table 1 for data for the compounds of the examples as tested by the assay of Example A at 1 mM ATP).

human JAK1 [2] = test: In vitro JAK kinase assay (HTRF), JAK1; conditions: ratio of JAK2 IC50 to JAK1 IC50 at 1 mM ATP
Summary of the method: as §1

pIC50 (human JAK2) | pIC50 (human JAK1 [1]) | JAK2/JAK1 (human JAK1 [2]) | SMILES | IC50 (human JAK1 [1]) [nM]
> 5.70 | > 6.00 |  | Cc1nc2cnc3ccsc3c2n1[C@H]1CC[C@H](CC#N)[C@H](O)C1 (racemic) [Example 34, Mixture of [(1R,2R,4S)-2-hydroxy-4-(2-methyl-1H-imidazo[4,5-d]thieno[3,2-b]pyridin-1-yl)cyclohexyl]acetonitrile trifluoroacetate and [(1S,2S,4R)-2-hydroxy-4-(2-methyl-1H-imidazo[4,5-d]thieno[3,2-b]pyridin-1-yl)cyclohexyl]acetonitrile trifluoroacetate] | 
 | > 6.00 | >10 | C[C@@H](O)c1nc2cnc3ccsc3c2n1C1CCNCC1F (single isomer, unassigned) [9 (2nd peak)] | 
< 5.70 |  | >10 | C[C@@H](O)c1nc2cnc3ccsc3c2n1C1CCC(O)(CC#N)CC1 (single isomer, unassigned) [24 (second peak)] | 

Continued, compound first:

SMILES | pIC50 (human JAK2) | pIC50 (human JAK1 [1]) | JAK2/JAK1 (human JAK1 [2]) | IC50 (human JAK1 [1]) [nM]
Cc1nc2cnc3ccsc3c2n1[C@@H]1CC[C@@H](CC#N)[C@H](O)C1.Cc1nc2cnc3ccsc3c2n1[C@H]1CC[C@H](CC#N)[C@@H](O)C1 (mixture of isomers) [41 (first peak), [(1R,2S,4S)-4-(2-Methyl-1H-imidazo[4,5-d]thieno[3,2-b]pyridin-1-yl)-2-hydroxycyclohexyl]acetonitrile and [(1S,2R,4R)-4-(2-methyl-1H-imidazo[4,5-d]thieno[3,2-b]pyridin-1-yl)-2-hydroxycyclohexyl]acetonitrile] | > 6.00 |  |  | < 100
Cc1nc2cnc3ccsc3c2n1[C@@H]1CC[C@@H](CC#N)[C@H](O)C1.Cc1nc2cnc3ccsc3c2n1[C@H]1CC[C@H](CC#N)[C@@H](O)C1 (mixture of isomers) [41 (second peak), [(1R,2S,4S)-4-(2-Methyl-1H-imidazo[4,5-d]thieno[3,2-b]pyridin-1-yl)-2-hydroxycyclohexyl]acetonitrile and [(1S,2R,4R)-4-(2-methyl-1H-imidazo[4,5-d]thieno[3,2-b]pyridin-1-yl)-2-hydroxycyclohexyl]acetonitrile] |  |  |  | > 2000
